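Step 1: Grow cells in 96-well plates. Step 2: Expose to compound for 48 hours at 5 concentrations. Step 3: Interpolate endpoints linearly; if unreached, use highest concentration. At the GI50, growth is halved. TGI: concentration producing complete growth inhibition.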
Experiments:
Test in all cases: DTP human tumour cell line panel, 48 h
TK-10 renal = tested on: TK-10 renal
HT29 colon = tested on: HT29 colon
SW-620 colon = tested on: SW-620 colon
OVCAR-4 ovarian = tested on: OVCAR-4 ovarian
CCRF-CEM leukemia = tested on: CCRF-CEM leukemia
ACHN renal = tested on: ACHN renal
HOP-62 NSCLC = tested on: HOP-62 NSCLC
UACC-62 melanoma = tested on: UACC-62 melanoma
HOP-92 NSCLC = tested on: HOP-92 NSCLC
SR leukemia = tested on: SR leukemia

| SMILES | GI50 (TK-10 renal) | TGI (TK-10 renal) | TGI (HT29 colon) | TGI (SW-620 colon) | GI50 (OVCAR-4 ovarian) | TGI (OVCAR-4 ovarian) | TGI (CCRF-CEM leukemia) | TGI (ACHN renal) | GI50 (HOP-62 NSCLC) | TGI (HOP-62 NSCLC) | TGI (UACC-62 melanoma) | TGI (HOP-92 NSCLC) | GI50 (SR leukemia) | TGI (SR leukemia) | GI50 (HT29 colon) | GI50 (SW-620 colon) | GI50 (CCRF-CEM leukemia) | GI50 (ACHN renal) | GI50 (UACC-62 melanoma) | GI50 (HOP-92 NSCLC) |
| --- | --- | --- | --- | --- | --- | --- | --- | --- | --- | --- | --- | --- | --- | --- | --- | --- | --- | --- | --- | --- |
| COc1cc2c(c(OC)c1OC)-c1ccc(SC)c(=O)cc1[C@@H](NC(=O)c1ccc(OC(C)=O)cc1)CC2 | 0.0113 µM | 33.4 µM | 0.0653 µM | 31 µM | 10.6 µM | 23.1 µM | > 100 µM | > 100 µM | 0.0126 µM | 22.2 µM | 26.9 µM | 0.0311 µM | 0.00773 µM | 23.9 µM |  |  |  |  |  |  |
| CCN(CC)CCOc1ccc(Nc2ncc3cc(-c4ccc(O)cc4)c(=O)n(C)c3n2)cc1 | 3.9 µM | 8.73 µM | 2.79 µM | 4.01 µM | 16.7 µM | 33.7 µM | > 26.4 µM | 17.5 µM | 2.78 µM | 23.7 µM | 41 µM | 31.1 µM | 0.0662 µM | 2.76 µM | 0.379 µM | 2.01 µM | 0.845 µM | 0.0618 µM | 17.5 µM | 12.9 µM |
| Cc1ccccc1C(=O)C#Cc1cn(C2CC(O)C(CO)O2)c(=O)[nH]c1=O (stereo not drawn) |  | > 100 µM | > 100 µM | > 100 µM |  | > 100 µM | 67.3 µM | > 100 µM |  | > 100 µM | > 100 µM | > 100 µM |  | > 100 µM |  |  |  |  |  |  |
| COc1ccc(C2S/C(=C\c3cc(OC)c(OC)c(OC)c3)C(=O)N2NC(=O)Cc2ccccc2)cc1 (stereo not drawn) |  | > 100 µM | > 100 µM | > 100 µM |  | > 100 µM | > 100 µM | > 100 µM |  | > 100 µM | > 100 µM | > 100 µM |  | > 100 µM |  |  |  |  |  |  |
| CCCc1ccc(S(=O)(=O)N[C@H]2CC[C@H]3[C@@H]4CCc5cc(O)ccc5[C@H]4CC[C@]23C)cc1 | 3.8 µM | 13.7 µM | 10.2 µM | 14.2 µM | 2.23 µM | 9.57 µM | 12 µM | 8.06 µM | 4.65 µM | 15.8 µM | 4.37 µM | 5.65 µM | 2.53 µM | 8.06 µM | 3.19 µM | 3.6 µM | 2.72 µM | 2.57 µM | 1.92 µM | 1.91 µM |
| CCN1C(=O)N(CC)C2C1NN=c1s/c(=C3\C(=O)N(CC(C)C)c4ccccc43)c(=O)n12 (stereo not drawn) | 8.08 µM | > 56.6 µM | > 100 µM | > 100 µM | 1.23 µM | > 100 µM | > 100 µM | > 45 µM | 0.797 µM | 34.8 µM | 65.5 µM | > 64.1 µM | 0.522 µM | > 100 µM | 0.396 µM | 0.444 µM | 0.464 µM | 0.723 µM | 0.603 µM | 4.04 µM |
| CCC1=C[C@@H]2CN(C1)Cc1c([nH]c3ccccc13)[C@@](C(=O)OC)(c1cc3c(cc1OC)N(C=O)[C@H]1[C@@](O)(C(=O)OC)[C@H](OC(C)=O)[C@]4(CC)[C@@H]5C[C@@H]5CN5CC[C@]31[C@@H]54)C2 | 0.315 µM | > 6.25 µM | > 6.25 µM | > 6.25 µM | 0.054 µM | > 6.25 µM | > 6.25 µM | > 6.25 µM | 0.00158 µM | > 6.25 µM | > 6.25 µM | 0.226 µM | < 0.000625 µM |  | < 0.000625 µM | 0.000656 µM | < 0.000625 µM | 0.0315 µM | < 0.000625 µM | 0.00629 µM |
| Nc1ccc(C(=O)c2ccc(N)c(Br)c2)cc1Br | 0.567 µM | 21.5 µM | 1.18 µM | > 100 µM | 6.24 µM | > 100 µM | > 100 µM | > 69.9 µM | 0.538 µM | 22.7 µM | > 62.1 µM | 5.9 µM | 0.253 µM | 1.35 µM | 0.335 µM | 0.379 µM | 0.483 µM | 1.47 µM | 0.645 µM | 0.299 µM |
| COc1ccc(C(=O)C(c2ccc(OC)cc2)C2(O)C(=O)Nc3c(C)cc(Cl)cc32)cc1 (stereo not drawn) |  | > 100 µM | > 100 µM | > 100 µM |  | > 100 µM | 47.7 µM | > 100 µM |  | > 100 µM | 54.2 µM | > 100 µM |  | 48.2 µM |  |  |  |  |  |  |
| Cc1cc(O)c(C(=O)CC2(O)C(=O)Nc3c(Cl)cc(Cl)cc32)c(=O)o1 (stereo not drawn) |  | > 100 µM | > 100 µM | > 100 µM |  | > 100 µM | > 100 µM | > 100 µM |  | > 100 µM | > 100 µM | > 100 µM |  | > 100 µM |  |  |  |  |  |  |
| CC(C)=CC(=O)Oc1ccc([N+](=O)[O-])cc1 |  | > 100 µM | > 100 µM | > 100 µM |  | > 100 µM | > 100 µM | > 100 µM |  | > 100 µM | > 100 µM | > 100 µM |  | > 100 µM |  |  |  |  |  |  |
| COc1ccc(CNc2nc3cc(N)cc(N)c3nc2-c2ccccc2)cc1OC | 16.8 µM | 32.8 µM | 46.2 µM | > 58.9 µM | 7.36 µM | 26.5 µM | 71.5 µM | 32 µM | 18.8 µM | 34.4 µM | 24.9 µM | 29.8 µM | 2.94 µM | 25.9 µM | 7.26 µM | 7.77 µM | 3.48 µM | 14.4 µM | 11.7 µM | 13.4 µM |
| N#CC1=C(N)NC(=S)NC12Nc1ccccc1O2 (stereo not drawn) | 42.5 µM | > 100 µM | 90.8 µM | > 100 µM | 52 µM | > 100 µM | > 100 µM | 99.2 µM | 17.5 µM | 57.7 µM | 70 µM | > 100 µM | 0.597 µM | > 100 µM | 31.2 µM | 47.6 µM | 61.7 µM | 29.2 µM | 20.8 µM | > 100 µM |
| NCCCC(=O)Nc1ccncc1 | > 100 µM | > 100 µM | > 100 µM | > 100 µM | > 100 µM | > 100 µM | > 100 µM | > 100 µM | > 100 µM | > 100 µM | > 100 µM | > 100 µM | > 100 µM | > 100 µM | > 100 µM | > 100 µM | > 100 µM | > 100 µM | > 100 µM | > 100 µM |

— PubChem BioAssay (NCI)
